In publication PMC6130518, “Investigation of the effective components of the flowers of Trollius chinensis from the perspectives of intestinal bacterial transformation and intestinal absorption” (Pharmaceutical Biology, 2017):

Test system: Caco-2 cells
Assay: MTT assay, non-toxic dose range
Format: cell-based, human
Conditions: 4 h, positive control
Experimental: The Caco-2 cells were seeded into 96-well plates as they were in logarithmic growth phase. Each well was added with 100 μL of the cell suspension (8.0 × 10^3 cells/mL) and incubated in 5% CO2 and constant temperature (37 °C) and humidity in the incubator. […] The cells were incubated under the same conditions for 4 h; then, 100 μL of 3-(4,5-dimethylthiazolzyl)-2,5-diphenyl tetrazolium bromide (MTT, Amresco, Radnor, PA) solution at the concentration of 0.5 mg/mL took the place of HBSS. After the cells were incubated under the same conditions for 4 h, the supernatant was replaced by 150 μL of dimethyl sulphoxide (DMSO, Sigma Chemical Co., Deisenhofen, Germany); then, the cells were shaken for 10 min. The absorption of the samples was measured on a microplate reader (BioTek Instruments, Inc., Winooski, VT) at the wavelength of 570 nm.
The following formula was used to calculate the cell survival rate=A/A0×100%, wherein, A represented the average absorbance value of the experiment groups, and A0 represented the average absorbance value of the control group.

CC(=O)O[C@H]1C(=O)[C@@]2(C)[C@H]([C@H](OC(=O)c3ccccc3)[C@]3(O)C[C@H](OC(=O)[C@H](O)[C@@H](NC(=O)c4ccccc4)c4ccccc4)C(C)=C1C3(C)C)[C@]1(OC(C)=O)CO[C@@H]1C[C@@H]2O [paclitaxel]
survival rate of the Caco-2 cells (0.02 mg/L): 67.3%
survival rate of the Caco-2 cells (0.04 mg/L): 45.5%
survival rate of the Caco-2 cells (0.08 mg/L): 37.4%
